# Results published in patent US11096979B2, “Pharmaceutical composition for preventing or treating liver diseases, containing licorice extract containing glycyrrhizin and liquiritin” (NOVAREX CO., LTD., priority 2016, dated 2021).
# Experiments:
# [1] = test system: HepG2 cells with hepatotoxicity induced by t-BHP; test: Inhibition of t-BHP-induced hepatotoxicity in cultured hepatocytes; settings: HepG2, FIG. 6
# [2] = test system: NO production by LPS in BV2 cells; test: Inhibition of NO production by LPS in BV2 cells; format: cell-based; settings: BV2 cells, 10, 20 and 50 μM, after 24 hr, FIG. 2
# Description: In order to evaluate the anti-inflammatory effects of single components derived from the licorice extract, BV2 cells were treated with glycyrrhizin, liquiritin and liquiritigenin at concentrations of 10, 20 and 50 μM, after which the inhibition of NO production by LPS (Lipopolysaccharide) was measured after 24 hr.
# iNOS, COX2 = test: iNOS and COX2 mRNA (PCR) in LPS-treated BV2 cells; format: cell-based; settings: BV2 cells treated with LPS, FIGS. 3A-3C
# Description: (§1) In order to investigate the molecular biological mechanism of the anti-inflammatory effect of the single components derived from the licorice extract, the following test was conducted. BV2 cells were treated with an inflammation inducer LPS, after which the extent of inhibition of the increase in proinflammatory cytokines, iNOS ([…]), COX2 (cyclooxygenase-2), etc. by three components (glycyrrhizin, liquiritin and liquiritigenin) was measured based on changes in mRNA using a PCR technique.
# [3] = test system: cultured hepatocytes (HepG2); test: Cell viability of HepG2 cells treated with single components or t-BHP; settings: HepG2, t-BHP alone, FIG. 6
# [4] = test system: cultured hepatocytes (HepG2); settings: human, 100 μM
# TNF-α, IL-1β, IL-6 = test: Inflammation-related cytokine mRNA (PCR) in LPS-treated BV2 cells; format: cell-based; settings: BV2 cells treated with LPS, FIGS. 4A-4C
# Description: as §1
Structure (SMILES),inhibition of hepatotoxicity induced by t-BHP [1],inhibition of NO production by LPS [2],"expression of iNOS and COX2 (mRNA) (iNOS, COX2)",cell viability upon treatment with t-BHP [3],cell viability [4],"expression of inflammation-related cytokines (TNF-α, IL-1β, IL-6) (TNF-α, IL-1β, IL-6)"
O=C1C[C@@H](c2ccc(O)cc2)Oc2cc(O)ccc21 [liquiritigenin],hepatotoxicity inhibition effects increased with the treatment concentration thereof,greatest efficacy,also exhibited reduction effects,–,–,–
"CC(C)(C)OO [t-BHP, t-butyl hydroperoxide]",–,–,–,about 30%,–,–
CC1(C)[C@@H](O[C@H]2O[C@H](C(=O)O)[C@@H](O)[C@H](O)[C@H]2O[C@@H]2O[C@H](C(=O)O)[C@@H](O)[C@H](O)[C@H]2O)CC[C@]2(C)[C@H]3C(=O)C=C4[C@@H]5C[C@@](C)(C(=O)O)CC[C@]5(C)CC[C@@]4(C)[C@]3(C)CC[C@@H]12 [glycyrrhizin],hepatotoxicity inhibition effects increased with the treatment concentration thereof,–,–,–,≥ 95%,inhibited more strongly
O=C1C[C@@H](c2ccc(O[C@@H]3O[C@H](CO)[C@@H](O)[C@H](O)[C@H]3O)cc2)Oc2cc(O)ccc21 [liquiritin],hepatotoxicity inhibition effects increased with the treatment concentration thereof,–,decreased the expression of iNOS and COX2 more strongly than glycyrrhizin,–,≥ 95%,–
